“And” between values parts separate entries of the source, which are not always exact repeats. Equal entries are not always repeated. Inconclusive results and toxic doses are left out. How the source made its calls: active means survival T/C of 150% or more; inactive means T/C below 125% in these data. Square brackets hold non-standard residues; d marks the D form. Peptide text beside a SMILES is read from it. * marks the point of attachment. ξ: configuration not given here. Cbz = O=C(OCc1ccccc1)*; ξNle = CCCCC(N)C(=O)O
Test system: BDF1 mice, B16 melanoma ip, median survival T/C
Test: NCI In Vivo Anticancer Drug Screen. Data for tumor model B16 Melanoma (intraperitoneal) in B6D2F1 (BDF1) mice
Conditions: endpoint: median survival time, higher = longer survival
Method: The antitumor activity of compounds was measured in mice bearing transplantable tumors. Survival or tumor size were measured and the results are expressed as the measurement made in the treated group (T) divided by the measurement made in the vehicle treated control group (C). The tumor model used in this assay is B16 Melanoma (intraperitoneal) in B6D2F1 (BDF1) mice

[1] = dose: 25.0 mg/kg/injection, schedule: Q01DX009 (ip), vehicle: saline with Tween-80
[2] = dose: 50.0 mg/kg/injection, schedule: Q01DX009 (ip), vehicle: saline with Tween-80
[3] = dose: 100.0 mg/kg/injection, schedule: Q01DX009 (ip), vehicle: saline with Tween-80
[4] = dose: 200.0 mg/kg/injection, schedule: Q01DX009 (ip), vehicle: saline with Tween-80
[5] = dose: 25.0 mg/kg/injection, schedule: Q01DX009 (ip), vehicle: Klucel (hydroxypropylcellulose) (HPC)
[6] = dose: 50.0 mg/kg/injection, schedule: Q01DX009 (ip), vehicle: Klucel (hydroxypropylcellulose) (HPC)
[7] = dose: 100.0 mg/kg/injection, schedule: Q01DX009 (ip), vehicle: Klucel (hydroxypropylcellulose) (HPC)
[8] = dose: 200.0 mg/kg/injection, schedule: Q01DX009 (ip), vehicle: Klucel (hydroxypropylcellulose) (HPC)
[9] = dose: 400.0 mg/kg/injection, schedule: Q01DX009 (ip), vehicle: Klucel (hydroxypropylcellulose) (HPC)
[10] = dose: 12.5 mg/kg/injection, schedule: Q01DX009 (ip), vehicle: saline with Tween-80
[11] = dose: 6.25 mg/kg/injection, schedule: Q01DX009 (ip), vehicle: Klucel (hydroxypropylcellulose) (HPC)
[12] = dose: 6.25 mg/kg/injection, schedule: Q01DX009 (ip), vehicle: saline with Tween-80
[13] = dose: 400.0 mg/kg/injection, schedule: Q01DX009 (ip), vehicle: saline with Tween-80
[14] = dose: 2.0 mg/kg/injection, schedule: Q01DX009 (ip), vehicle: saline
[15] = dose: 4.0 mg/kg/injection, schedule: Q01DX009 (ip), vehicle: saline
[16] = dose: 8.0 mg/kg/injection, schedule: Q01DX009 (ip), vehicle: saline

Measured: T/C

CC(C)CC(NC(=O)C(Cc1ccccc1)NC(=O)OCc1ccccc1)C(=O)O (stereo not drawn) (Cbz-Phe-Leu-OH; configuration not given here)
inactive: [1] 92 % of control | [2] 93 % of control | [3] 90 % of control | [4] 87 % of control

O=[N+]([O-])O.[Cu+2].[NH-]CC[NH-].[NH-]CC[NH-]
inactive: dose: 3.0 mg/kg/injection, schedule: Q01DX009 (ip), vehicle: saline 116 % of control | dose: 6.0 mg/kg/injection, schedule: Q01DX009 (ip), vehicle: saline 122 % of control | dose: 12.0 mg/kg/injection, schedule: Q01DX009 (ip), vehicle: saline 102 % of control | dose: 12.5 mg/kg/injection, schedule: Q01DX009 (ip), vehicle: saline 87 % of control

O=C1CC2(C(=O)N1CN1CCOCC1)c1ccccc1-c1ccccc12
inactive: [5] 103 % of control | [6] 98 % of control | [7] 98 % of control | [8] 107 % of control | [9] 115 % of control

CCCCCCOC(CN(C)C)C(Cl)(Cl)Cl (centres undefined)
inactive: dose: 12.5 mg/kg/injection, schedule: Q01DX009 (ip), vehicle: distilled water + Tween-80 100 % of control | [10] 101 % of control | dose: 25.0 mg/kg/injection, schedule: Q01DX009 (ip), vehicle: distilled water + Tween-80 97 % of control | [1] 105 % of control | dose: 50.0 mg/kg/injection, schedule: Q01DX009 (ip), vehicle: distilled water + Tween-80 94 % of control | [2] 102 % of control | dose: 100.0 mg/kg/injection, schedule: Q01DX009 (ip), vehicle: distilled water + Tween-80 89 % of control | [3] 90 % of control | [4] 89 % of control

NC(=S)N/N=C\c1ncnc2ccccc12
inactive: [11] 124 % of control

ClCCN(CCCl)CCN1c2ccccc2Sc2ccccc21
inactive: dose: 1.56 mg/kg/injection, schedule: Q01DX009 (ip), vehicle: saline with Tween-80 105 % of control and 122 % of control | dose: 3.12 mg/kg/injection, schedule: Q04DX003 (ip), vehicle: Klucel (hydroxypropylcellulose) (HPC) 107 % of control | [12] 123 % of control | dose: 6.25 mg/kg/injection, schedule: Q04DX003 (ip), vehicle: Klucel (hydroxypropylcellulose) (HPC) 115 % of control

NC(=O)NC1CCCCCC1
inactive: [3] 108 % of control | [4] 104 % of control | [13] 95 % of control

CSc1nc(N)cc(NC(=O)CCl)n1
inactive: [12] 109 % of control | [10] 97 % of control | [1] 89 % of control and 118 % of control | [2] 97 % of control and 120 % of control

Cc1ccc(NC(=O)c2ccc([N+](=O)[O-])cc2)cc1Cl
inactive: [5] 109 % of control | [6] 99 % of control | [7] 99 % of control

CSc1cc(=O)n2c3ccccc3c3ccnc1c32
inactive: dose: 0.63 mg/kg/injection, schedule: Q01DX009 (ip), vehicle: saline with Tween-80 104 % of control | dose: 1.25 mg/kg/injection, schedule: Q01DX009 (ip), vehicle: saline with Tween-80 110 % of control | dose: 2.5 mg/kg/injection, schedule: Q01DX009 (ip), vehicle: saline with Tween-80 101 % of control | dose: 5.0 mg/kg/injection, schedule: Q01DX009 (ip), vehicle: saline with Tween-80 108 % of control

CC(=O)NC1=C(N2CC2C)C(=O)C(NC(C)=O)=C(N2CC2C)C1=O (centres undefined)
inactive: dose: 0.62 mg/kg/injection, schedule: Q01DX009 (ip), vehicle: saline 89 % of control | dose: 1.25 mg/kg/injection, schedule: Q01DX009 (ip), vehicle: saline 105 % of control

COc1cc([C@@H]2c3cc4c(cc3[C@H](O)[C@H]3COC(=O)[C@H]23)OCO4)cc(OC)c1OC
inactive: [14] 102 % of control | [15] 109 % of control | [16] 104 % of control

CCCCOc1ccc(NC(=O)CCl)cc1
inactive: [10] 99 % of control | [1] 100 % of control | [2] 99 % of control

COc1ccccc1NC(=O)Nc1ccccc1
inactive: [7] 104 % of control | [8] 103 % of control | [9] 109 % of control

COC(=O)c1n[nH]c(C(C)C)c1N=NN(C)C
inactive: dose: 37.5 mg/kg/injection, schedule: Q01DX009 (ip), vehicle: saline with Tween-80 110 % of control | dose: 75.0 mg/kg/injection, schedule: Q01DX009 (ip), vehicle: saline with Tween-80 115 % of control

CN1C(=O)CCS(=O)(=O)C1c1ccc(Cl)c(Cl)c1 (centres undefined)
inactive: dose: 0.39 mg/kg/injection, schedule: Q01DX009 (ip), vehicle: Klucel (hydroxypropylcellulose) (HPC) 103 % of control | dose: 0.78 mg/kg/injection, schedule: Q01DX009 (ip), vehicle: Klucel (hydroxypropylcellulose) (HPC) 87 % of control | dose: 1.56 mg/kg/injection, schedule: Q01DX009 (ip), vehicle: Klucel (hydroxypropylcellulose) (HPC) 109 % of control and 116 % of control | dose: 3.12 mg/kg/injection, schedule: Q01DX009 (ip), vehicle: Klucel (hydroxypropylcellulose) (HPC) 111 % of control and 118 % of control | [11] 103 % of control and 111 % of control | dose: 12.5 mg/kg/injection, schedule: Q01DX009 (ip), vehicle: Klucel (hydroxypropylcellulose) (HPC) 97 % of control | [6] 90 % of control

CCCN(CCC)C(=O)c1ccncc1
inactive: [7] 93 % of control | [9] 95 % of control

Cc1cc(NC(=O)NCc2ccc(N3C(N)=NC(N)=NC3(C)C)cc2)ccc1S(=O)(=O)F
inactive: dose: 25.0 mg/kg/injection, schedule: Q04DX003 (ip), vehicle: saline 97 % of control | dose: 50.0 mg/kg/injection, schedule: Q04DX003 (ip), vehicle: saline 109 % of control | dose: 400.0 mg/kg/injection, schedule: Q04DX003 (ip), vehicle: saline 122 % of control

CCO/C=C1\SC(=S)N(c2ccc(C(=O)O)cc2)C1=O
inactive: [10] 107 % of control | [1] 115 % of control | [2] 110 % of control

CCC[P+](c1ccccc1)(c1ccccc1)c1ccccc1
inactive: [14] 96 % of control | [15] 98 % of control | [16] 115 % of control | dose: 16.0 mg/kg/injection, schedule: Q01DX009 (ip), vehicle: saline 115 % of control | dose: 32.0 mg/kg/injection, schedule: Q01DX009 (ip), vehicle: saline 108 % of control

Cc1cnc2c(N)[nH]nc2n1
inactive: [6] 97 % of control | [7] 106 % of control | [8] 107 % of control

C=CC1CC[N-]CC1.C=CC1CC[N-]CC1.C=CC1CC[N-]CC1.[Cl][Cr]([Cl])[Cl]
inactive: dose: 8.0 mg/kg/injection, schedule: Q04DX003 (ip), vehicle: saline with Tween-80 97 % of control | dose: 12.0 mg/kg/injection, schedule: Q04DX003 (ip), vehicle: saline with Tween-80 102 % of control | [10] 95 % of control | dose: 18.0 mg/kg/injection, schedule: Q04DX003 (ip), vehicle: saline with Tween-80 105 % of control | [1] 95 % of control | dose: 25.0 mg/kg/injection, schedule: Q04DX003 (ip), vehicle: saline with Tween-80 121 % of control | [2] 102 % of control | dose: 50.0 mg/kg/injection, schedule: Q04DX003 (ip), vehicle: saline with Tween-80 113 % of control

CCCCC(NC(=O)CNC(=O)CN)C(=O)O (stereo not drawn) (H-Gly-Gly-[ξNle]-OH)
inactive: [2] 97 % of control | [3] 103 % of control | [4] 92 % of control | [13] 93 % of control

Reference: PubChem BioAssay AID192 (DTP/NCI, 2004)
